Assay results from patent US11572398B2, “GLP-1 derivatives and uses thereof” (Novo Nordisk A/S, priority 2014, dated 2023).
Like-named read-outs stand apart in the source and are kept apart here.

Assays:
[1] = biological target: T1, human GLP-1 receptor (Homo sapiens, UniProt P43220); test: In vitro potency: CRE luciferase reporter gene assay in BHK cells expressing the human GLP-1 receptor; format: cell-based
T1 construct: expressed in transfected cells; host or cells: BHK cells (parent line BHKTS13), clone FCW467-12A; membrane preparation
Experimental: The purpose of this example is to test the activity, or potency, of the GLP-1 derivatives in vitro. The in vitro potency is the measure of human GLP-1 receptor activation in a whole cell assay.
In vitro potency was determined by measuring the response of the human GLP-1 receptor in a reporter gene assay. The assay was performed in a stably transfected BHK cell line that expresses the human GLP-1 receptor and contains the DNA for the cAMP response element (CRE) coupled to a promoter and the gene for firefly luciferase (CRE luciferase). When the human GLP-1 receptor is activated it results in the production of cAMP, which in turn results in the luciferase protein being expressed. When assay incubation is completed the luciferase substrate (luciferin) is added and the enzyme converts luciferin to oxyluciferin to produce bioluminescence. The luminescence is measured as the readout for the assay.
The cells were cultured at 5% CO2 in cell culture medium. They were aliquoted and stored in liquid nitrogen. Before each assay an aliquot was taken up and washed twice in PBS before being suspended at the desired concentration in the assay specific buffer.
The assay buffer consisted of 2% ovalbumin and 0.2% Pluronic F-68 in assay medium.
1) Cell stocks were thawed in a 37° C. water bath.
2) Cells were washed three times in PBS.
3) Cells were counted and adjusted to 5×10^3 cells/50 μl (1×10^5 cells/ml) in assay medium. A 50 μl aliquot of cells was transferred to each well in the assay plate.
4) Stocks of the test compounds and reference compounds were diluted to a concentration of 0.2 μM in assay buffer. […] 8) A 100 μl aliquot of steadylite plus reagent was added to each well of the assay plate. 9) Each assay plate was covered with aluminum foil to protect it from light and shaken for 30 min at room temperature. 10) Each assay plate was read in a BioTek Synergy 2 Multi-Mode Reader. Calculations and Results
The data from the BioTek Synergy 2 Multi-Mode Reader were transferred to GraphPad Prism software. The software performs a non-linear regression (log(agonist) vs response (three parameters)).
A minimum of two replicates were measured for each sample. The reported EC50 values are averages of all of the measured values for each compound.

[2] = biological target: T1, human GLP-1 receptor; test: GLP-1 receptor binding: competitive binding assay (125I-GLP-1, SPA) on isolated membranes at low and high HSA
Experimental: The purpose of this example is to test the receptor binding of the GLP-1 derivatives in vitro. The receptor binding is a measure of affinity of a derivative for the human GLP-1 receptor.
Each derivative is added in a series of concentrations to isolated membranes containing the human GLP-1 receptor and displacement of the labelled ligand is monitored. The receptor binding is reported as the concentration at which half of the labelled ligand is displaced from the receptor, the IC50 value.
Buffer 1 consisted of 20 mM Na-HEPES plus 10 mM EDTA and pH was adjusted to 7.4. Buffer 2 consisted of 20 mM Na-HEPES plus 0.1 mM EDTA and pH was adjusted to 7.4. Assay buffer consisted of 50 mM HEPES supplemented with 5 mM EGTA, 5 mM MgCl2, 0.005% Tween 20 and pH was adjusted to 7.4. An 8% albumin stock consisted of HSA dissolved at 8% (w/v) in assay buffer. An 0.02% albumin stock consisted of HSA dissolved at 0.02% (w/v) in assay buffer.
The cells express the human GLP-1 receptor.
The cells were grown at 5% CO2 in DMEM, 10% fetal calf serum, 1% Pen/Strep (Penicillin/Streptomycin) and 1.0 mg/ml of the selection marker G418. To make a membrane preparation the cells were grown to approximately 80% confluence. The cells were washed twice in phosphate-buffered saline and harvested. The cells were pelleted using a brief centrifugation and the cell pellet was kept on ice. […] The homogenate was centrifuged for 15 minutes. The pellet was re-suspended (homogenised) in 10 ml buffer 2 and centrifuged. This step was repeated once more. The resulting pellet was re-suspended in buffer 2 and the protein concentration was determined. The membranes were aliquoted and stored at minus 80° C.
1. […] Assay continued with step 3.
2. For the receptor binding assay in the presence of high HSA (2%) 50 μl of the 8% albumin stock was added to each well of an assay plate. Assay continued with step 3.
4. Cell membrane aliquots were thawed and diluted to their working concentration. Fifty μl were added to each well in the assay plate.
5. WGA SPA beads were suspended in assay buffer at 20 mg/ml. The suspension was diluted to 10 mg/ml in assay buffer just prior to addition to the assay plate. Fifty μl were added to each well in the assay plate.
6. […] A 25 μl aliquot was reserved for measuring total counts/well.
7. The assay plate was incubated for 2 h at 30° C.
8. The assay plate was centrifuged for 10 min.
9. The assay plate was read in a Packard TopCount NXT instrument.
The data from the TopCount instrument were transferred to GraphPad Prism software. Individual replicates were analysed using non-linear regression. IC50 values were calculated by the software and reported in nM. The reported values are averages of all of the measured values for each compound.

[3] = Low HSA IC50, low HSA (max. 0.001% final assay concentration)
[4] = whole cell reporter gene assay, BHK cells, human GLP-1 receptor, average of at least two replicates, read-out: EC50
[5] = high HSA (2.0% final assay concentration), read-out: High HSA IC50

T1 sequence (P43220 24-463): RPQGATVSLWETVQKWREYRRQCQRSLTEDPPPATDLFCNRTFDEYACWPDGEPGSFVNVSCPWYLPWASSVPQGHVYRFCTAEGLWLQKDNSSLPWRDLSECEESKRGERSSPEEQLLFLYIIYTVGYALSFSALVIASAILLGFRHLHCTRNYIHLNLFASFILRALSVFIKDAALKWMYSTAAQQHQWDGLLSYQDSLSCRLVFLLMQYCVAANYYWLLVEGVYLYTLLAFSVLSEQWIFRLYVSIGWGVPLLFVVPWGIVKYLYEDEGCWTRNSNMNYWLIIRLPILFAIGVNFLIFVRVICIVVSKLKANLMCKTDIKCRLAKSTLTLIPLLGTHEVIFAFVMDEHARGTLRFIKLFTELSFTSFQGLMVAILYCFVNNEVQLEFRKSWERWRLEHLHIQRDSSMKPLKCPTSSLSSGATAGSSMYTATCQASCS

Compound	EC50 [1] [nM]	IC50 ([2]; High HSA IC50, high HSA (2.0% final assay concentration)) [nM]	IC50 [2, 3] [nM]	EC50 [1, 4] [nM]	IC50 [2, 5] [nM]
CC[C@H](C)[C@H](NC(=O)[C@H](Cc1ccccc1)NC(=O)[C@H](CCC(=O)O)NC(=O)[C@H](CCCNC(=N)N)NC(=O)[C@H](C)NC(=O)[C@H](C)NC(=O)[C@H](CCC(N)=O)NC(=O)[C@H](CCC(=O)O)NC(=O)[C@H](CCC(=O)O)NC(=O)[C@H](CC(C)C)NC(=O)[C@H](Cc1ccc(O)cc1)NC(=O)[C@H](CO)NC(=O)[C@H](CO)NC(=O)[C@@H](NC(=O)[C@H](CC(=O)O)NC(=O)[C@H](CO)NC(=O)[C@@H](NC(=O)[C@H](Cc1ccccc1)NC(=O)[C@@H](NC(=O)CNC(=O)[C@H](CCC(=O)O)NC(=O)C(C)(C)NC(=O)[C@@H](N)Cc1c[nH]cn1)[C@@H](C)O)[C@@H](C)O)C(C)C)C(=O)N[C@@H](C)C(=O)N[C@@H](Cc1c[nH]c2ccccc12)C(=O)N[C@@H](CC(C)C)C(=O)N[C@H](C(=O)N[C@@H](CCCNC(=N)N)C(=O)NCC(=O)N[C@@H](CCCNC(=N)N)C(=O)N[C@@H](CCCCNC(=O)CN(CCCNC(=O)COCCOCCNC(=O)COCCOCCNC(=O)COCCOCCNC(=O)COCCOCCNC(=O)COCCOCCNC(=O)COCCOCCNC(=O)CC[C@H](NC(=O)CCCNC(=O)CCCCCCCCCCCCCCCS(=O)(=O)O)C(=O)O)CCCNC(=O)COCCOCCNC(=O)COCCOCCNC(=O)COCCOCCNC(=O)COCCOCCNC(=O)COCCOCCNC(=O)COCCOCCNC(=O)CC[C@H](NC(=O)CCCNC(=O)CCCCCCCCCCCCCCCS(=O)(=O)O)C(=O)O)C(=O)O)C(C)C [Example 18, N{Epsilon-37}-[2-[bis[3-[[2-[2-[2-[[2-[2-[2-[[2-[2-[2-[[2-[2-[2-[[2-[2-[2-[[2-[2-[2-[[(4S)-4-carboxy-4-[4-(16-sulfohexadecanoylamino)butanoylamino]butanoyl]amino]ethoxy]ethoxy]acetyl]amino]ethoxy]ethoxy]acetyl]amino]ethoxy]ethoxy]acetyl]amino]ethoxy]ethoxy]acetyl]amino]ethoxy]ethoxy]acetyl]amino]ethoxy]ethoxy]acetyl]amino]propyl]amino]acetyl]-[Aib8,Glu22,Arg26,Arg34,Lys37]-GLP-1-(7-37)-peptide]	0.0013	5.7	0.18		
CC[C@H](C)[C@H](NC(=O)[C@H](Cc1ccccc1)NC(=O)[C@H](CCC(=O)O)NC(=O)[C@H](CCCNC(=N)N)NC(=O)[C@H](C)NC(=O)[C@H](C)NC(=O)[C@H](CCC(N)=O)NC(=O)[C@H](CCC(=O)O)NC(=O)[C@H](CCC(=O)O)NC(=O)[C@H](CC(C)C)NC(=O)[C@H](Cc1ccc(O)cc1)NC(=O)[C@H](CO)NC(=O)[C@H](CO)NC(=O)[C@@H](NC(=O)[C@H](CC(=O)O)NC(=O)[C@H](CO)NC(=O)[C@@H](NC(=O)[C@H](Cc1ccccc1)NC(=O)[C@@H](NC(=O)CNC(=O)[C@H](CCC(=O)O)NC(=O)C(C)(C)NC(=O)[C@@H](N)Cc1c[nH]cn1)[C@@H](C)O)[C@@H](C)O)C(C)C)C(=O)N[C@@H](C)C(=O)N[C@@H](Cc1c[nH]c2ccccc12)C(=O)N[C@@H](CC(C)C)C(=O)N[C@H](C(=O)N[C@@H](CCCNC(=N)N)C(=O)NCC(=O)N[C@@H](CCCNC(=N)N)C(=O)N[C@@H](CCCCNC(=O)CN(CCCNC(=O)COCCOCCNC(=O)COCCOCCNC(=O)COCCOCCNC(=O)COCCOCCNC(=O)CC[C@H](NC(=O)[C@H]1CC[C@H](CNC(=O)CCCNC(=O)CCCCCCCCCCCCCCCS(=O)(=O)O)CC1)C(=O)O)CCCNC(=O)COCCOCCNC(=O)COCCOCCNC(=O)COCCOCCNC(=O)COCCOCCNC(=O)CC[C@H](NC(=O)[C@H]1CC[C@H](CNC(=O)CCCNC(=O)CCCCCCCCCCCCCCCS(=O)(=O)O)CC1)C(=O)O)C(=O)O)C(C)C [Example 19, N{Epsilon-37}-[2-[bis[3-[[2-[2-[2-[[2-[2-[2-[[2-[2-[2-[[2-[2-[2-[[(4S)-4-carboxy-4-[[4-[[4-(16-sulfohexadecanoylamino)butanoylamino]methyl]cyclohexanecarbonyl]amino]butanoyl]amino]ethoxy]ethoxy]acetyl]amino]ethoxy]ethoxy]acetyl]amino]ethoxy]ethoxy]acetyl]amino]ethoxy]ethoxy]acetyl]amino]propyl]amino]acetyl]-[Aib8,Glu22,Arg26,Arg34,Lys37]-GLP-1-(7-37)-peptide]			0.15	0.0014	42
CC[C@H](C)[C@H](NC(=O)[C@H](Cc1ccccc1)NC(=O)[C@H](CCC(=O)O)NC(=O)[C@H](CCCNC(=N)N)NC(=O)[C@H](C)NC(=O)[C@H](C)NC(=O)[C@H](CCC(N)=O)NC(=O)[C@H](CCC(=O)O)NC(=O)[C@H](CCC(=O)O)NC(=O)[C@H](CC(C)C)NC(=O)[C@H](Cc1ccc(O)cc1)NC(=O)[C@H](CO)NC(=O)[C@H](CO)NC(=O)[C@@H](NC(=O)[C@H](CC(=O)O)NC(=O)[C@H](CO)NC(=O)[C@@H](NC(=O)[C@H](Cc1ccccc1)NC(=O)[C@@H](NC(=O)CNC(=O)[C@H](CCC(=O)O)NC(=O)C(C)(C)NC(=O)[C@@H](N)Cc1c[nH]cn1)[C@@H](C)O)[C@@H](C)O)C(C)C)C(=O)N[C@@H](C)C(=O)N[C@@H](Cc1c[nH]c2ccccc12)C(=O)N[C@@H](CC(C)C)C(=O)N[C@H](C(=O)N[C@@H](CCCNC(=N)N)C(=O)NCC(=O)N[C@@H](CCCNC(=N)N)C(=O)N[C@@H](CCCCNC(=O)CN(CCCNC(=O)COCCOCCNC(=O)COCCOCCNC(=O)COCCOCCNC(=O)COCCOCCNC(=O)COCCOCCNC(=O)CC[C@H](NC(=O)[C@H]1CC[C@H](CNC(=O)CCCNC(=O)CCCCCCCCCCCCCCCS(=O)(=O)O)CC1)C(=O)O)CCCNC(=O)COCCOCCNC(=O)COCCOCCNC(=O)COCCOCCNC(=O)COCCOCCNC(=O)COCCOCCNC(=O)CC[C@H](NC(=O)[C@H]1CC[C@H](CNC(=O)CCCNC(=O)CCCCCCCCCCCCCCCS(=O)(=O)O)CC1)C(=O)O)C(=O)O)C(C)C [Example 20, N{Epsilon-37}-[2-[bis[3-[[2-[2-[2-[[2-[2-[2-[[2-[2-[2-[[2-[2-[2-[[2-[2-[2-[[(4S)-4-carboxy-4-[[4-[[4-(16-sulfohexadecanoylamino)butanoylamino]methyl]cyclohexanecarbonyl]amino]butanoyl]amino]ethoxy]ethoxy]acetyl]amino]ethoxy]ethoxy]acetyl]amino]ethoxy]ethoxy]acetyl]amino]ethoxy]ethoxy]acetyl]amino]ethoxy]ethoxy]acetyl]amino]propyl]amino]acetyl]-[Aib8,Glu22,Arg26,Arg34,Lys37]-GLP-1-(7-37)-peptide]			0.14	0.0016	3.7
